Results: article PMC9293909 (Nature Communications, 2022)

Assays:
[1] = Half-life determination in PBS; assay type: physicochemical; conditions: PBS, pH 7.4
Experimental: […] Samples were analysed by HPLC-MS/MS and corresponding peak areas were recorded for each analyte. The ratio of precursor compound remaining after each time-point relative to the amount present at time 0, expressed as a percentage, is reported as chemical stability.

[2] = Intrinsic clearance by human liver microsomes; conditions: UoBern01 at 1.00E-07 M
[3] = Half-life determination in human plasma; conditions: UoBern01 at 1.00E-06 M
Experimental: At the end of incubation at each of the time points (0, 0.5, 1, 1.5, 2 h), acetonitrile was added to the incubation mixture followed by centrifugation. Samples were analysed by HPLC-MS/MS and peak areas were recorded for each analyte. The area of precursor compound remaining after each of the time points relative to the amount remaining at time 0, expressed as a percentage, was calculated. Subsequently, the t1/2 is estimated from the slope of the initial linear range of the logarithmic curve of compound remaining (%) versus time, assuming first-order kinetics.

[4] = incubation 0 minutes, UoBern01 at 1.00E-06 M
[5] = incubation 60 minutes, UoBern01 at 1.00E-06 M
[6] = incubation 120 minutes, UoBern01 at 1.00E-06 M
[7] = incubation 180 minutes, 1.00E-06 M
[8] = incubation 240 minutes, 1.00E-06 M

OC[C@H]1O[C@@H](n2cnc3c(N[C@@H]4CCC[C@H]4OCc4ccccc4)ncnc32)[C@H](O)[C@@H]1O [UoBern01]
2nd / Half-Life ([1]; UoBern01 at 1.00E-06 M): >4 h
Mean / Half-Life ([1]; UoBern01 at 1.00E-06 M): >4 h
1st / % Compound Remaining [1, 4]: 100%
2nd / % Compound Remaining [1, 4]: 100%
Mean / % Compound Remaining [1, 4]: 100%
1st / % Compound Remaining [1, 5]: 100%
2nd / % Compound Remaining [1, 5]: {204.3} %
Mean / % Compound Remaining [1, 5]: 100%
1st / % Compound Remaining [1, 6]: 99.8%
2nd / % Compound Remaining [1, 6]: 105.3%
Mean / % Compound Remaining [1, 6]: 102.5%
1st / % Compound Remaining [1, 7]: 96.7%
2nd / % Compound Remaining [1, 7]: {108.7} %
Mean / % Compound Remaining [1, 7]: 96.7%
1st / % Compound Remaining [1, 8]: 89.5%
2nd / % Compound Remaining [1, 8]: 100.9%
Mean / % Compound Remaining [1, 8]: 95.2%
Clint [2]: <115.5
Mean / Half-Life [2]: >1 h
1st / % Compound Remaining ([2]; incubation 0 minutes): 100%
2nd / % Compound Remaining ([2]; incubation 0 minutes): 100%
Mean / % Compound Remaining ([2]; incubation 0 minutes): 100%
1st / % Compound Remaining ([2]; incubation 15 minutes): 108.5%
2nd / % Compound Remaining ([2]; incubation 15 minutes): 101.9%
Mean / % Compound Remaining ([2]; incubation 15 minutes): 105.2%
1st / % Compound Remaining ([2]; incubation 30 minutes): 92.9%
2nd / % Compound Remaining ([2]; incubation 30 minutes): 86%
Mean / % Compound Remaining ([2]; incubation 30 minutes): 89.4%
1st / % Compound Remaining ([2]; incubation 45 minutes): 92%
2nd / % Compound Remaining ([2]; incubation 45 minutes): 89.5%
Mean / % Compound Remaining ([2]; incubation 45 minutes): 90.7%
1st / % Compound Remaining ([2]; incubation 60 minutes): 84.1%
2nd / % Compound Remaining ([2]; incubation 60 minutes): 69.7%
Mean / % Compound Remaining ([2]; incubation 60 minutes): 76.9%
1st / Half-Life [3]: >2 h
2nd / Half-Life [3]: >2 h
Mean / Half-Life [3]: >2 h
1st / % Compound Remaining ([3]; incubation 0 minutes): 100%
2nd / % Compound Remaining ([3]; incubation 0 minutes): 100%
Mean / % Compound Remaining ([3]; incubation 0 minutes): 100%
1st / % Compound Remaining ([3]; incubation 30 minutes): 104.2%
2nd / % Compound Remaining ([3]; incubation 30 minutes): {224.0} %
Mean / % Compound Remaining ([3]; incubation 30 minutes): 104.2%
1st / % Compound Remaining ([3]; incubation 60 minutes): 124.2%
2nd / % Compound Remaining ([3]; incubation 60 minutes): 99%
Mean / % Compound Remaining ([3]; incubation 60 minutes): 111.6%
1st / % Compound Remaining ([3]; incubation 90 minutes): 133.3%
2nd / % Compound Remaining ([3]; incubation 90 minutes): 101.7%
Mean / % Compound Remaining ([3]; incubation 90 minutes): 117.5%
1st / % Compound Remaining ([3]; incubation 120 minutes): {142.4} %
2nd / % Compound Remaining ([3]; incubation 120 minutes): 108.4%
Mean / % Compound Remaining ([3]; incubation 120 minutes): 108.4%
